From US20200223889A1, “Bicyclic Compounds Capable of Binding to Melanocortin 4 Receptor” (Novo Nordisk A/S, priority 2017, published 2020)
Positions of bridges follow the written chain, without caps; N, C: chain ends. Non-standard residues stand in square brackets, D forms with d. Residues, ends and D or L forms follow the SMILES beside them. Thz = O=C(O)[C@@H]1CSCN1

Assay: In vivo obese model: DIO mice treated once daily, food intake and body weight
Procedure: Stimulation of MC4R signaling is reported to modulate energy intake and expenditure in both humans and rodents. In order to test the effect of MC4R agonists on food intake and body weight, diet-induced obese (DIO) mice were treated once daily with compounds to assess weight loss efficacy.
All animal protocols were approved by an Institutional Animal Care and Use Committee and Ethical Review Committee of Novo Nordisk. Animals were housed according to Novo Nordisk rodent housing standards, and were given ad libitum access to food and water under controlled lighting (12 h:12 h light/dark cycle; lights off 17:00-05:00), temperature (23±2° C.) and relative humidity (50±20%) conditions. Diet-induced obese (DIO) male C57BL/6J mice maintained on a high fat diet (60% kcal fat, 5.24 kcal/gram; RD12492, Research Diets, New Brunswick, N.J., USA) for 22 weeks were obtained from Charles River (France). Upon arrival, the mice were single-housed (one mouse per cage) and allowed to acclimate to their new environment for two weeks prior to the start of treatment.
Prior to initiation of the study, animals were single-housed and acclimated to handling for 7 days. The DIO mice were distributed into groups (n=8/group) such that statistical variations in the mean and standard deviations of fat mass and body weight were minimized between groups. Animals were dosed once daily, subcutaneously at 16:00 with either vehicle or compound
Body weight and food intake were measured immediately prior to dosing each day. The average starting body weight of the mice prior to start of treatment was 47.2±0.2 grams.

[1] = 0.3 μmol/kg once daily s.c., day 1, mean ± SEM
[2] = 0.3 μmol/kg once daily s.c., day 2, mean ± SEM
[3] = 0.3 μmol/kg once daily s.c., day 3, mean ± SEM
[4] = 0.3 μmol/kg once daily s.c., day 4, mean ± SEM
[5] = 0.3 μmol/kg once daily s.c., day 5, mean ± SEM
[6] = 0.3 μmol/kg once daily s.c., day 6, mean ± SEM
[7] = 0.3 μmol/kg once daily s.c., day 7, mean ± SEM
[8] = 0.3 μmol/kg once daily s.c., day 8, mean ± SEM
[9] = 0.3 μmol/kg once daily s.c., day 9, mean ± SEM
[10] = 0.3 μmol/kg once daily s.c., day 10, mean ± SEM
[11] = 0.3 μmol/kg once daily s.c., day 11, mean ± SEM
[12] = 0.3 μmol/kg once daily s.c., day 12, mean ± SEM
[13] = 0.3 μmol/kg once daily s.c., day 13, mean ± SEM
[14] = 0.3 μmol/kg once daily s.c., day 14, mean ± SEM
[15] = 0.3 μmol/kg once daily s.c., day 15, mean ± SEM
[16] = 0.3 μmol/kg once daily s.c., day 16, mean ± SEM
[17] = 0.3 μmol/kg once daily s.c., day 17, mean ± SEM
[18] = 0.3 μmol/kg once daily s.c., day 18, mean ± SEM
[19] = 0.3 μmol/kg once daily s.c., day 19, mean ± SEM
[20] = 0.3 μmol/kg once daily s.c., day 20, mean ± SEM
[21] = 1.5 μmol/kg once daily s.c., day 1, mean ± SEM
[22] = 1.5 μmol/kg once daily s.c., day 2, mean ± SEM
[23] = 1.5 μmol/kg once daily s.c., day 3, mean ± SEM
[24] = 1.5 μmol/kg once daily s.c., day 4, mean ± SEM
[25] = 1.5 μmol/kg once daily s.c., day 5, mean ± SEM
[26] = 1.5 μmol/kg once daily s.c., day 6, mean ± SEM
[27] = 1.5 μmol/kg once daily s.c., day 7, mean ± SEM
[28] = 1.5 μmol/kg once daily s.c., day 8, mean ± SEM
[29] = 1.5 μmol/kg once daily s.c., day 9, mean ± SEM
[30] = 1.5 μmol/kg once daily s.c., day 10, mean ± SEM
[31] = 1.5 μmol/kg once daily s.c., day 11, mean ± SEM
[32] = 1.5 μmol/kg once daily s.c., day 12, mean ± SEM
[33] = 1.5 μmol/kg once daily s.c., day 13, mean ± SEM
[34] = 1.5 μmol/kg once daily s.c., day 14, mean ± SEM
[35] = 1.5 μmol/kg once daily s.c., day 15, mean ± SEM
[36] = 1.5 μmol/kg once daily s.c., day 16, mean ± SEM
[37] = 1.5 μmol/kg once daily s.c., day 17, mean ± SEM
[38] = 1.5 μmol/kg once daily s.c., day 18, mean ± SEM
[39] = 1.5 μmol/kg once daily s.c., day 19, mean ± SEM
[40] = 1.5 μmol/kg once daily s.c., day 20, mean ± SEM

## C[C@@H]1NC(=O)[C@H](CCCCN)NC(=O)[C@@H]2CSSC[C@H](NC(=O)[C@H](Cc3c[nH]c4ccccc34)NC(=O)[C@H](C)NC(=O)[C@@H](CCCCN)NC1=O)C(=O)N1CSC[C@H]1C(=O)N[C@@H](Cc1c[nH]cn1)C(=O)N[C@H](Cc1ccccc1)C(=O)N[C@@H](Cc1c[nH]cn1)C(=O)N[C@@H](Cc1c[nH]c3ccccc13)C(=O)N2 [Chem. 114, c[c[Cys-THAZ-His-D-Phe-His-Trp- Cys]-Lys-Ala-D-Lys-Ala-Trp]] (cyclo(AWC[Thz]H[dF]HWCKA[dK]); disulfide 3-9)
0.3 μmol/kg once daily s.c., day 0, mean ± SEM
  Daily food intake, kcals: 13.4 ± 0.6 kcals
[1]
  Cumulative food intake, kcals: 7.7 ± 0.5 kcals
  Daily food intake, kcals: 7.7 ± 0.5 kcals
  Relative body weight, % initial: 96 ± 0.3 % initial
[2]
  Cumulative food intake, kcals: 13.6 ± 1.5 kcals
  Daily food intake, kcals: 6 ± 1.2 kcals
  Relative body weight, % initial: 94.2 ± 0.3 % initial
[3]
  Cumulative food intake, kcals: 23.5 ± 2.1 kcals
  Daily food intake, kcals: 9.9 ± 0.9 kcals
  Relative body weight, % initial: 93.6 ± 0.5 % initial
[4]
  Cumulative food intake, kcals: 34.3 ± 2.5 kcals
  Daily food intake, kcals: 10.7 ± 0.7 kcals
  Relative body weight, % initial: 91.8 ± 0.7 % initial
[5]
  Cumulative food intake, kcals: 44.8 ± 2.9 kcals
  Daily food intake, kcals: 10.5 ± 0.8 kcals
  Relative body weight, % initial: 91.1 ± 0.6 % initial
[6]
  Cumulative food intake, kcals: 55.6 ± 3.7 kcals
  Daily food intake, kcals: 10.8 ± 0.9 kcals
  Relative body weight, % initial: 89.9 ± 0.9 % initial
[7]
  Cumulative food intake, kcals: 67.7 ± 4.3 kcals
  Daily food intake, kcals: 12.1 ± 0.9 kcals
  Relative body weight, % initial: 89.5 ± 0.9 % initial
[8]
  Cumulative food intake, kcals: 78.8 ± 4.5 kcals
  Daily food intake, kcals: 11.1 ± 0.6 kcals
  Relative body weight, % initial: 88.6 ± 0.9 % initial
[9]
  Cumulative food intake, kcals: 90.8 ± 4.7 kcals
  Daily food intake, kcals: 12.1 ± 0.6 kcals
  Relative body weight, % initial: 88.6 ± 0.9 % initial
[10]
  Cumulative food intake, kcals: 103.2 ± 5.3 kcals
  Daily food intake, kcals: 12.3 ± 0.8 kcals
  Relative body weight, % initial: 87.7 ± 1.1 % initial
[11]
  Cumulative food intake, kcals: 114.2 ± 5.8 kcals
  Daily food intake, kcals: 11 ± 0.7 kcals
  Relative body weight, % initial: 88.2 ± 1.1 % initial
[12]
  Cumulative food intake, kcals: 127.6 ± 6.1 kcals
  Daily food intake, kcals: 13.4 ± 0.6 kcals
  Relative body weight, % initial: 87.2 ± 1.1 % initial
[13]
  Cumulative food intake, kcals: 140.8 ± 6.4 kcals
  Daily food intake, kcals: 13.2 ± 0.7 kcals
  Relative body weight, % initial: 87.1 ± 1.2 % initial
[14]
  Cumulative food intake, kcals: 153.9 ± 6.9 kcals
  Daily food intake, kcals: 13.2 ± 0.7 kcals
  Relative body weight, % initial: 87.3 ± 1.3 % initial
[15]
  Cumulative food intake, kcals: 167.5 ± 7.5 kcals
  Daily food intake, kcals: 13.6 ± 0.7 kcals
  Relative body weight, % initial: 87.4 ± 1.3 % initial
[16]
  Cumulative food intake, kcals: 181.2 ± 7.8 kcals
  Daily food intake, kcals: 13.7 ± 0.5 kcals
  Relative body weight, % initial: 87.5 ± 1.3 % initial
[17]
  Cumulative food intake, kcals: 195.8 ± 7.9 kcals
  Daily food intake, kcals: 14.5 ± 0.5 kcals
  Relative body weight, % initial: 87.4 ± 1.3 % initial
[18]
  Cumulative food intake, kcals: 211 ± 8.3 kcals
  Daily food intake, kcals: 15.3 ± 0.6 kcals
  Relative body weight, % initial: 87.9 ± 1.4 % initial
[19]
  Cumulative food intake, kcals: 225.4 ± 8.7 kcals
  Daily food intake, kcals: 14.3 ± 0.8 kcals
  Relative body weight, % initial: 88.6 ± 1.4 % initial
[20]
  Cumulative food intake, kcals: 241.2 ± 8.5 kcals
  Daily food intake, kcals: 15.9 ± 0.5 kcals
  Relative body weight, % initial: 88.9 ± 1.3 % initial
0.3 μmol/kg once daily subcutaneously
  reduction in body weight, relative to initial body weight: 11.1±1.3%
1.5 μmol/kg once daily s.c., day 0, mean ± SEM
  Daily food intake, kcals: 13.9 ± 1.3 kcals
[21]
  Cumulative food intake, kcals: 5.5 ± 0.8 kcals
  Daily food intake, kcals: 5.5 ± 0.8 kcals
  Relative body weight, % initial: 95.1 ± 0.4 % initial
[22]
  Cumulative food intake, kcals: 10.7 ± 1.4 kcals
  Daily food intake, kcals: 5.2 ± 0.8 kcals
  Relative body weight, % initial: 93 ± 0.4 % initial
[23]
  Cumulative food intake, kcals: 19.8 ± 2.2 kcals
  Daily food intake, kcals: 9.1 ± 0.8 kcals
  Relative body weight, % initial: 92.1 ± 0.6 % initial
[24]
  Cumulative food intake, kcals: 30.5 ± 3.1 kcals
  Daily food intake, kcals: 10.7 ± 1.2 kcals
  Relative body weight, % initial: 91.3 ± 0.7 % initial
[25]
  Cumulative food intake, kcals: 41.1 ± 4 kcals
  Daily food intake, kcals: 10.7 ± 0.9 kcals
  Relative body weight, % initial: 90.6 ± 0.9 % initial
[26]
  Cumulative food intake, kcals: 51.7 ± 4.6 kcals
  Daily food intake, kcals: 10.6 ± 0.8 kcals
  Relative body weight, % initial: 89.6 ± 0.8 % initial
[27]
  Cumulative food intake, kcals: 61.9 ± 5.4 kcals
  Daily food intake, kcals: 10.2 ± 1 kcals
  Relative body weight, % initial: 88.6 ± 0.9 % initial
[28]
  Cumulative food intake, kcals: 73.8 ± 5.8 kcals
  Daily food intake, kcals: 11.9 ± 0.7 kcals
  Relative body weight, % initial: 87.8 ± 0.8 % initial
[29]
  Cumulative food intake, kcals: 86.2 ± 6.4 kcals
  Daily food intake, kcals: 12.4 ± 0.8 kcals
  Relative body weight, % initial: 87.8 ± 1 % initial
[30]
  Cumulative food intake, kcals: 97.5 ± 7.5 kcals
  Daily food intake, kcals: 11.3 ± 1.2 kcals
  Relative body weight, % initial: 87.1 ± 0.9 % initial
[31]
  Cumulative food intake, kcals: 110.4 ± 8.4 kcals
  Daily food intake, kcals: 12.8 ± 1.4 kcals
  Relative body weight, % initial: 86.9 ± 0.9 % initial
[32]
  Cumulative food intake, kcals: 123.3 ± 9.2 kcals
  Daily food intake, kcals: 12.9 ± 0.9 kcals
  Relative body weight, % initial: 86.6 ± 1.1 % initial
[33]
  Cumulative food intake, kcals: 136.4 ± 9.8 kcals
  Daily food intake, kcals: 13.2 ± 0.7 kcals
  Relative body weight, % initial: 86.7 ± 1.3 % initial
[34]
  Cumulative food intake, kcals: 149.3 ± 10.7 kcals
  Daily food intake, kcals: 12.9 ± 1.1 kcals
  Relative body weight, % initial: 86.7 ± 1.3 % initial
[35]
  Cumulative food intake, kcals: 162.8 ± 11.1 kcals
  Daily food intake, kcals: 13.5 ± 0.6 kcals
  Relative body weight, % initial: 86 ± 1.2 % initial
[36]
  Cumulative food intake, kcals: 175.1 ± 11.7 kcals
  Daily food intake, kcals: 12.2 ± 0.7 kcals
  Relative body weight, % initial: 86 ± 1.3 % initial
[37]
  Cumulative food intake, kcals: 188.7 ± 12.2 kcals
  Daily food intake, kcals: 13.6 ± 0.8 kcals
  Relative body weight, % initial: 85.7 ± 1.2 % initial
[38]
  Cumulative food intake, kcals: 202.5 ± 13.1 kcals
  Daily food intake, kcals: 13.8 ± 1 kcals
  Relative body weight, % initial: 85.9 ± 1.2 % initial
[39]
  Cumulative food intake, kcals: 217 ± 13.9 kcals
  Daily food intake, kcals: 14.5 ± 0.9 kcals
  Relative body weight, % initial: 86.4 ± 1.3 % initial
[40]
  Cumulative food intake, kcals: 231.8 ± 13.6 kcals
  Daily food intake, kcals: 14.8 ± 0.8 kcals
  Relative body weight, % initial: 86.8 ± 1.3 % initial
1.5 μmol/kg once daily subcutaneously
  reduction in body weight, relative to initial body weight: 13.2±1.3%
Once daily subcutaneous treatment
  food intake (in words): transient reduction in food intake that returned to baseline levels during the second week of treatment
